# Results taken from PubChem BioAssay (NCI).
#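 Five concentrations, 48 hours, 96-well plates. GI50 marks 50% less growth. TGI marks complete inhibition of growth.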
# Assays:
# Test in all cases: NCI tumour cell line growth inhibition, 48 h
# [1] = test system: HS 578T breast
# [2] = test system: SK-OV-3 ovarian
# [3] = test system: UACC-62 melanoma
# [4] = test system: SK-MEL-5 melanoma
# [5] = test system: 786-0 renal
# [6] = test system: UO-31 renal
# [7] = test system: OVCAR-3 ovarian
# [8] = test system: NCI-H460 lung
# [9] = test system: K-562 leukemia
# [10] = test system: SN12C renal
# [11] = test system: CAKI-1 renal
# [12] = test system: SF-268 CNS
# [13] = test system: SNB-75 CNS
# [14] = test system: LOX IMVI melanoma
# [15] = test system: ACHN renal
# [16] = test system: SK-MEL-28 melanoma
# [17] = test system: MCF7 breast
# [18] = test system: HOP-62 NSCLC
# [19] = test system: SW-620 colon
# [20] = test system: RXF 393 renal
# [21] = test system: UACC-257 melanoma
# [22] = test system: SF-539 CNS
# [23] = test system: NCI-H522 lung
# [24] = test system: COLO 205 colon
# [25] = test system: SF-295 CNS
# [26] = test system: HCT-116 colon
# [27] = test system: BT-549 breast
# [28] = test system: TK-10 renal
# [29] = test system: PC-3 prostate
# [30] = test system: HOP-92 NSCLC
# [31] = test system: SNB-19 CNS
# [32] = test system: A498 renal
# [33] = test system: IGROV1 ovarian
# [34] = test system: MDA-MB-231 breast
# [35] = test system: A549 NSCLC
# [36] = test system: DU-145 prostate
# [37] = test system: T-47D breast
# [38] = test system: MOLT-4 leukemia
# [39] = test system: M14 melanoma
# [40] = test system: RPMI-8226 leukemia
# [41] = test system: KM12 colon
# [42] = test system: OVCAR-4 ovarian
# [43] = test system: SR leukemia
# [44] = test system: NCI-H226 lung
# [45] = test system: HCC-2998 colon
# [46] = test system: OVCAR-8 ovarian
# [47] = test system: OVCAR-5 ovarian
# [48] = test system: HT29 colon
# [49] = test system: CCRF-CEM leukemia
# [50] = test system: HCT-15 colon
# [51] = test system: MDA-MB-435
# [52] = test system: NCI/ADR-RES ovarian
# [53] = test system: MALME-3M melanoma
# [54] = test system: NCI-H23 lung
# [55] = test system: HL-60(TB) leukemia
# [56] = test system: U251 CNS
# [57] = test system: SK-MEL-2 melanoma
structure (smiles),measurement,setting,value
FC(F)(F)c1cccc(Nc2nc3ccccc3nc2Nc2cccc(C(F)(F)F)c2)c1,GI50,[1],2670 nM
same,TGI,[1],7880 nM
same,GI50,[2],437 nM
same,TGI,[2],1580 nM
same,GI50,[3],1560 nM
same,TGI,[3],5470 nM
same,GI50,[4],481 nM
same,TGI,[4],1700 nM
same,GI50,[5],1810 nM
same,TGI,[5],3910 nM
same,GI50,[6],1980 nM
same,TGI,[6],11000 nM
same,GI50,[7],444 nM
same,TGI,[7],4300 nM
same,GI50,[8],457 nM
same,TGI,[8],10100 nM
same,GI50,[9],1280 nM
same,TGI,[9],5610 nM
same,GI50,[10],442 nM
same,TGI,[10],2850 nM
same,GI50,[11],1020 nM
same,TGI,[11],8780 nM
same,GI50,[12],1290 nM
same,TGI,[12],13000 nM
same,GI50,[13],1150 nM
same,TGI,[13],6710 nM
same,GI50,[14],1500 nM
same,TGI,[14],3070 nM
same,GI50,[15],415 nM
same,TGI,[15],2230 nM
same,GI50,[16],1710 nM
same,TGI,[16],4730 nM
same,GI50,[17],2040 nM
same,TGI,[17],9630 nM
same,GI50,[18],762 nM
same,TGI,[18],2170 nM
same,GI50,[19],1710 nM
same,TGI,[19],4010 nM
same,GI50,[20],882 nM
same,TGI,[20],2340 nM
same,GI50,[21],2020 nM
same,TGI,[21],5540 nM
same,GI50,[22],959 nM
same,TGI,[22],3120 nM
same,GI50,[23],335 nM
same,TGI,[23],1630 nM
same,GI50,[24],682 nM
same,TGI,[24],2180 nM
same,GI50,[25],1920 nM
same,TGI,[25],5410 nM
same,GI50,[26],361 nM
same,TGI,[26],1520 nM
same,GI50,[27],2710 nM
same,TGI,[27],7600 nM
same,GI50,[28],1470 nM
same,TGI,[28],3800 nM
same,GI50,[29],495 nM
same,TGI,[29],7610 nM
same,GI50,[30],1360 nM
same,TGI,[30],4670 nM
same,GI50,[31],732 nM
same,TGI,[31],15400 nM
same,GI50,[32],663 nM
same,TGI,[32],3990 nM
same,GI50,[33],3200 nM
same,TGI,[33],16800 nM
same,GI50,[34],993 nM
same,TGI,[34],2730 nM
same,GI50,[35],368 nM
same,TGI,[35],2810 nM
same,GI50,[36],732 nM
same,TGI,[36],13000 nM
same,GI50,[37],1410 nM
same,TGI,[37],4730 nM
same,GI50,[38],1510 nM
same,TGI,[38],4340 nM
same,GI50,[39],972 nM
same,TGI,[39],3150 nM
same,GI50,[40],797 nM
same,TGI,[40],3950 nM
same,GI50,[41],1990 nM
same,TGI,[41],4950 nM
same,GI50,[42],2930 nM
same,TGI,[42],14600 nM
same,GI50,[43],1110 nM
same,TGI,[43],3360 nM
same,GI50,[44],1210 nM
same,TGI,[44],2980 nM
same,GI50,[45],2930 nM
same,TGI,[45],7450 nM
same,GI50,[46],745 nM
same,TGI,[46],5570 nM
same,GI50,[47],454 nM
same,TGI,[47],3390 nM
same,GI50,[48],391 nM
same,TGI,[48],2030 nM
same,GI50,[49],710 nM
same,TGI,[49],3840 nM
same,GI50,[50],515 nM
same,TGI,[50],2050 nM
same,GI50,[51],1030 nM
same,TGI,[51],2880 nM
same,GI50,[52],1980 nM
same,TGI,[52],11400 nM
same,GI50,[53],2130 nM
same,TGI,[53],6330 nM
same,GI50,[54],1720 nM
same,TGI,[54],6310 nM
same,GI50,[55],1860 nM
same,TGI,[55],4770 nM
same,GI50,[56],427 nM
same,TGI,[56],1910 nM
O=C(Nc1cccc(-c2cccc(F)c2)c1)C1CCN(Cc2cccc3cccnc23)CC1,GI50,[1],1910 nM
same,TGI,[1],4550 nM
same,GI50,[2],4670 nM
same,TGI,[2],16900 nM
same,GI50,[3],1730 nM
same,TGI,[3],3280 nM
same,GI50,[4],1640 nM
same,TGI,[4],3060 nM
same,GI50,[5],1580 nM
same,TGI,[5],3020 nM
same,GI50,[6],1730 nM
same,TGI,[6],4110 nM
same,GI50,[7],3510 nM
same,TGI,[7],13200 nM
same,GI50,[8],1920 nM
same,TGI,[8],3770 nM
same,GI50,[9],1520 nM
same,TGI,[9],3870 nM
same,GI50,[10],1970 nM
same,TGI,[10],4830 nM
same,GI50,[11],1960 nM
same,TGI,[11],4070 nM
same,GI50,[12],4050 nM
same,TGI,[12],16100 nM
same,GI50,[13],2400 nM
same,TGI,[13],11700 nM
same,GI50,[14],1590 nM
same,TGI,[14],3120 nM
same,GI50,[15],2280 nM
same,TGI,[15],5670 nM
same,GI50,[16],1820 nM
same,TGI,[16],3570 nM
same,GI50,[17],1800 nM
same,TGI,[17],4160 nM
same,GI50,[18],3780 nM
same,TGI,[18],15700 nM
same,GI50,[19],1710 nM
same,TGI,[19],3570 nM
same,GI50,[20],1570 nM
same,TGI,[20],3470 nM
same,GI50,[21],1830 nM
same,TGI,[21],3750 nM
same,GI50,[22],1800 nM
same,TGI,[22],3560 nM
same,GI50,[23],2160 nM
same,TGI,[23],5100 nM
same,GI50,[24],1620 nM
same,TGI,[24],3290 nM
same,GI50,[25],1800 nM
same,TGI,[25],3600 nM
same,GI50,[26],1710 nM
same,TGI,[26],3080 nM
same,GI50,[27],1790 nM
same,TGI,[27],3300 nM
same,GI50,[28],4300 nM
same,TGI,[28],16700 nM
same,GI50,[29],2210 nM
same,TGI,[29],7090 nM
same,GI50,[30],2030 nM
same,TGI,[30],7220 nM
same,GI50,[31],2000 nM
same,TGI,[31],4830 nM
same,GI50,[32],2060 nM
same,TGI,[32],7090 nM
same,GI50,[33],2100 nM
same,TGI,[33],4740 nM
same,GI50,[34],1900 nM
same,TGI,[34],3990 nM
same,GI50,[35],3470 nM
same,TGI,[35],13000 nM
same,GI50,[36],4360 nM
same,TGI,[36],15600 nM
same,GI50,[37],2000 nM
same,TGI,[37],5830 nM
same,GI50,[38],1660 nM
same,TGI,[38],4770 nM
same,GI50,[39],1750 nM
same,TGI,[39],3300 nM
same,GI50,[40],1950 nM
same,TGI,[40],4490 nM
same,GI50,[41],3160 nM
same,TGI,[41],10300 nM
same,GI50,[42],3570 nM
same,TGI,[42],14100 nM
same,GI50,[43],1660 nM
same,TGI,[43],4460 nM
same,GI50,[44],3150 nM
same,TGI,[44],17200 nM
same,GI50,[45],1770 nM
same,TGI,[45],3290 nM
same,GI50,[46],3530 nM
same,TGI,[46],13800 nM
same,GI50,[47],2930 nM
same,TGI,[47],11800 nM
same,GI50,[48],1510 nM
same,TGI,[48],3170 nM
same,GI50,[49],2670 nM
same,TGI,[49],11200 nM
same,GI50,[50],1790 nM
same,TGI,[50],5160 nM
same,GI50,[51],1690 nM
same,TGI,[51],3190 nM
same,GI50,[52],2760 nM
same,TGI,[52],10200 nM
same,GI50,[57],2030 nM
same,TGI,[57],4290 nM
same,GI50,[53],1650 nM
same,TGI,[53],3280 nM
same,GI50,[54],3160 nM
same,TGI,[54],13000 nM
same,GI50,[55],1940 nM
same,TGI,[55],4200 nM
same,GI50,[56],1850 nM
same,TGI,[56],3730 nM
